{"source": "paper PMC3566779", "about": "(The Journal of neuroscience : the official journal of the …, 2012)", "key": {"Wistar rats [1]": {"test_system": "Wistar rats", "conditions": "TRPV1 antagonist; ref Garami et al., 2010; Steiner et al., 2007; cited from earlier work"}, "TRPV1": {"target": "TRPV1 (Homo sapiens, UniProt Q8NER1)", "sequence (Q8NER1 whole entry, species assumed)": "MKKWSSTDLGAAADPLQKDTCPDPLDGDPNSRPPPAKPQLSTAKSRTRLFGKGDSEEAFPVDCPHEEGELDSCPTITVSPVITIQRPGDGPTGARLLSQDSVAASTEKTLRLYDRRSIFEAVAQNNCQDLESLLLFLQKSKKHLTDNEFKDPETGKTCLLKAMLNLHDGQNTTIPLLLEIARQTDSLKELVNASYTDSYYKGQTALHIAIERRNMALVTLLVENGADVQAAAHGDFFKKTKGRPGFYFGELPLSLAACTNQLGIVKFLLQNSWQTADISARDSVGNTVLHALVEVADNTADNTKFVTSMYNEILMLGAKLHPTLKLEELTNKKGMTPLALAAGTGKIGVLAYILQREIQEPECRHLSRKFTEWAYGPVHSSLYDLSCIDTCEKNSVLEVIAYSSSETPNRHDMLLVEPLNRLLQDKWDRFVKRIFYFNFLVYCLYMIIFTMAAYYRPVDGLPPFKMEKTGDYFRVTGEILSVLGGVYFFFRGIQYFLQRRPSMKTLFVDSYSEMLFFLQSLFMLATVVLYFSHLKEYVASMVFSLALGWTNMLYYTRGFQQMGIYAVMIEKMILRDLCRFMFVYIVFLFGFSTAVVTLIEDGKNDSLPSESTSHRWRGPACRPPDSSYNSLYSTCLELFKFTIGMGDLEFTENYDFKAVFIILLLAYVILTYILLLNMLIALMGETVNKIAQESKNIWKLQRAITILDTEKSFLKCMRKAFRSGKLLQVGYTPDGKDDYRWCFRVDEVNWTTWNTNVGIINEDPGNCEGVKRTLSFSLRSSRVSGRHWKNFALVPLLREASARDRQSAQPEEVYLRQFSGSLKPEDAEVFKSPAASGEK", "assay": "TRPV1 assay, capsaicin activation", "assay_type": "cell-based"}, "other TRP channels": {"test_system": "other TRP channels", "assay": "TRP selectivity assays in CHO cells", "assay_type": "cell-based", "conditions": "read-out: IC50, block of other TRP channels"}, "Trpm8+/+ mice": {"test_system": "Trpm8+/+ mice", "assay": "Abdominal Tb in Trpm8+/+ mice, telemetry setup", "assay_type": "in vivo, mouse", "conditions": "Ta 26°C"}, "Trpm8−/− mice": {"test_system": "Trpm8−/− mice", "assay": "Abdominal Tb in Trpm8−/− mice, telemetry setup", "assay_type": "in vivo, mouse", "conditions": "Ta 26°C"}, "[2]": {"test_system": "native TRPM8 channels in murine primary sensory neurons", "assay": "Ratiometric Ca2+ imaging of trigeminal or dorsal root ganglion neurons", "assay_type": "cell-based, mouse"}, "Wistar rats [3]": {"test_system": "Wistar rats", "assay": "Colonic Tb and oxygen consumption in rats, respirometry setup", "assay_type": "in vivo, rat", "conditions": "6 mg/kg i.v. over 20 min, Ta 19°C"}, "Wistar rats [4]": {"test_system": "Wistar rats", "assay": "Deep", "assay_type": "in vivo, rat"}, "Wistar rats [5]": {"test_system": "Wistar rats", "assay": "Preferred Ta and abdominal Tb in rats, thermogradient setup", "assay_type": "in vivo, rat"}, "rat TRPM8": {"target": "rat TRPM8 (Rattus norvegicus, UniProt Q8R455)", "sequence (Q8R455 whole entry)": "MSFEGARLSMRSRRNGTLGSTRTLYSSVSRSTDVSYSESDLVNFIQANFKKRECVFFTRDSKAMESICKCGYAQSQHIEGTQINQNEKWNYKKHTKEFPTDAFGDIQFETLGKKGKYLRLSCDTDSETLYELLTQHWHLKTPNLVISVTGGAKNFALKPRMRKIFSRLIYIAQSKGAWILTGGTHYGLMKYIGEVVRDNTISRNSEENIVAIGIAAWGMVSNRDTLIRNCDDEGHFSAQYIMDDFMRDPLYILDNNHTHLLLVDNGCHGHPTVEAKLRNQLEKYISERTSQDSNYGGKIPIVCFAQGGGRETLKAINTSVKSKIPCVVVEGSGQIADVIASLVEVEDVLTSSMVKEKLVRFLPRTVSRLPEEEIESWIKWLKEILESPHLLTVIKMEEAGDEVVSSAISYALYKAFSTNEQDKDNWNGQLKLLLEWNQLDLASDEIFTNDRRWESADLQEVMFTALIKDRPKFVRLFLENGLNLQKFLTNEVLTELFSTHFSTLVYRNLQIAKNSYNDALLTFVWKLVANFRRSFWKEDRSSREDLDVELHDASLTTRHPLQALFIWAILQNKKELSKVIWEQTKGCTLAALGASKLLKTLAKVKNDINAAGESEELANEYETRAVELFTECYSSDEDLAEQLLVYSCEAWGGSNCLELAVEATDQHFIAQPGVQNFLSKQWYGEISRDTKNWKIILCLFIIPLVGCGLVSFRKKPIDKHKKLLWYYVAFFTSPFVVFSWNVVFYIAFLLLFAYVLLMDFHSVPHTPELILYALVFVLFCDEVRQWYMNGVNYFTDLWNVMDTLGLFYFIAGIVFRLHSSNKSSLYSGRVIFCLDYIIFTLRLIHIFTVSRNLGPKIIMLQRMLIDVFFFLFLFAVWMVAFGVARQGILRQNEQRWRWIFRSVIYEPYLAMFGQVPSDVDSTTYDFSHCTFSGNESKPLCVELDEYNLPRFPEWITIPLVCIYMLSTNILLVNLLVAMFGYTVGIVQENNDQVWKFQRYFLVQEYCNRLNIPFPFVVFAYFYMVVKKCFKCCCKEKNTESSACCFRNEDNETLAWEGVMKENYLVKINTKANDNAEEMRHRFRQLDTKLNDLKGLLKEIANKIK", "assay": "Aequorin luminescence Ca2+ assay, CHO cells stably expressing rat TRPM8", "assay_type": "cell-based"}, "Wistar rats [6]": {"test_system": "Wistar rats", "assay": "BAT thermometry", "assay_type": "in vivo, rat", "conditions": "1 mg/kg i.v. at 32°C"}, "[7]": {"test_system": "c-Fos expression in the lateral parabrachial nucleus", "assay": "Cold-induced c-Fos immunohistochemistry in the lateral parabrachial nucleus", "assay_type": "in vivo, rat", "conditions": "rats, 6 mg/kg i.v. pretreatment, 2-h cold exposure (4°C)"}, "TRPV4": {"target": "TRPV4 (Homo sapiens, UniProt Q9HBA0)", "sequence (Q9HBA0 whole entry, species assumed)": "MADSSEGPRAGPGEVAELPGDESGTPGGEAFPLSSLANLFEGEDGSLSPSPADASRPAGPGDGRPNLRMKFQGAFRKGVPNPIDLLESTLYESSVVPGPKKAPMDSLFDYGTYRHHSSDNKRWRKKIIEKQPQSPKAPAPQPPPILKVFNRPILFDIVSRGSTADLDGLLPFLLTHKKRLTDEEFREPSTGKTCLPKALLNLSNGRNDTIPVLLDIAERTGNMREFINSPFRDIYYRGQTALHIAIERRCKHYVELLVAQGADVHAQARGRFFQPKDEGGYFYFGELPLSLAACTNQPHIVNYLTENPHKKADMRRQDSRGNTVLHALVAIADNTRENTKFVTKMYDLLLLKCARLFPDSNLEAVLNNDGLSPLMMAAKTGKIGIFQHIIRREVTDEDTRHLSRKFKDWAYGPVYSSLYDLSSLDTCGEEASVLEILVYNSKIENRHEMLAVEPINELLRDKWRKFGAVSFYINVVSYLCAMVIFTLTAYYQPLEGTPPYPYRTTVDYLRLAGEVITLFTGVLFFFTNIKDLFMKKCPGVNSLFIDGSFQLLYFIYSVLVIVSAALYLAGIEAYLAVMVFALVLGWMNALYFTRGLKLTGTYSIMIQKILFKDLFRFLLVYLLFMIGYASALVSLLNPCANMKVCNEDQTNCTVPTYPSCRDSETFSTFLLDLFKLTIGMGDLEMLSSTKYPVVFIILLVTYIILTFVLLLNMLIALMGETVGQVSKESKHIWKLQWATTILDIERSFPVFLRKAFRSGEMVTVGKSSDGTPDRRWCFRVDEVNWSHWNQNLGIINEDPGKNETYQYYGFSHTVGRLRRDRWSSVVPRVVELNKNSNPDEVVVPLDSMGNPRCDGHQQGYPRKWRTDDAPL", "assay": "TRPV4 aequorin assay, 4α-PDD activation", "assay_type": "cell-based", "conditions": "read-out: IC50 for TRPV4; 1 μM 4α-PDD as agonist"}, "TRPA1": {"target": "TRPA1 (Homo sapiens, UniProt O75762)", "sequence (O75762 whole entry, species assumed)": "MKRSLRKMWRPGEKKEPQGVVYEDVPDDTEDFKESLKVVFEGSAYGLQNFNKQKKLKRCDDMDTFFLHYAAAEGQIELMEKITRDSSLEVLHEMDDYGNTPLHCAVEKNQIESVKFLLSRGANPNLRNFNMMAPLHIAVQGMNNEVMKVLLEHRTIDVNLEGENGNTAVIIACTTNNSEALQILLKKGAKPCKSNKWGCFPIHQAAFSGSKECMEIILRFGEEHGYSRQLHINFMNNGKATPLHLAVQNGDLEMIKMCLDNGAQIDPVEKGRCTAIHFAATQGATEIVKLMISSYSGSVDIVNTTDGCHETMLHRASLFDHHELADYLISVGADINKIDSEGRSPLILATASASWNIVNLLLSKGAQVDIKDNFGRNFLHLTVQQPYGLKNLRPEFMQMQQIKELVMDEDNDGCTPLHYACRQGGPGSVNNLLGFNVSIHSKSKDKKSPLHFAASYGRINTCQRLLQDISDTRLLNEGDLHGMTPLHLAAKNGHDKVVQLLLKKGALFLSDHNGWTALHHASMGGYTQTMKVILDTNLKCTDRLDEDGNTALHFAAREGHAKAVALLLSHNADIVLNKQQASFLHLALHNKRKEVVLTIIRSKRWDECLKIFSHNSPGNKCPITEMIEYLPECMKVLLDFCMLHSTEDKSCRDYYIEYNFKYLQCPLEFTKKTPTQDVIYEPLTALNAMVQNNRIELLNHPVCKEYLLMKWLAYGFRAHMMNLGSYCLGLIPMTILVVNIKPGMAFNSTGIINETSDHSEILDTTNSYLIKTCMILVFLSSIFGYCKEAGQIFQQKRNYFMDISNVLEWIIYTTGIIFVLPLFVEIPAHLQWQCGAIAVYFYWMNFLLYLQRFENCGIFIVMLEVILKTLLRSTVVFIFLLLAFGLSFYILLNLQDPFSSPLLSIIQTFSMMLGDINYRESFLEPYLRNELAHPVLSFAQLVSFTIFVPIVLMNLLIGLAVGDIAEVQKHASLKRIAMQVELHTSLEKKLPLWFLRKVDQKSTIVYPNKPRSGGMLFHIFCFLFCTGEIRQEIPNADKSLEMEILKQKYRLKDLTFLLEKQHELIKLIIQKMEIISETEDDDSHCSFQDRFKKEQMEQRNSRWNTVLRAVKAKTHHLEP", "assay": "TRPA1 aequorin assay, allylisothiocyanate activation", "assay_type": "cell-based", "conditions": "read-out: IC50 for TRPA1; 80 μM allylisothiocyanate as agonist"}}, "data": [{"compound": "O=C(/C=C/c1ccc(C(F)(F)F)nc1N1CCCCC1)Nc1cccc2c1CC(O)CC2", "note": "(stereo not drawn) [AMG0347]", "values": [{"measurement": "Thermal response", "setting": "Wistar rats [1]", "result": "cause hyperthermia"}]}, {"compound": "CC(C)(C)c1ccc(/C=C/C(=O)Nc2ccc3c(c2)OCCO3)cc1", "note": "[AMG9810, (E)-3-(4-t-butylphenyl)-N-(2,3-dihydrobenzo[b][1,4]dioxin-6-yl)acrylamide]", "values": [{"measurement": "IC50", "setting": "TRPV1", "result": 0.086, "unit": "µM"}]}, {"compound": "COc1cc(CN(CCN)C(=O)c2cccs2)ccc1OCc1ccccc1.Cl", "note": "[M8-B, N-(2-aminoethyl)-N-(4-(benzyloxy)-3-methoxybenzyl)thiophene-2-carboxamide hydrochloride]", "values": [{"measurement": "IC50", "setting": "other TRP channels", "result": "> 20", "unit": "µM"}, {"measurement": "Decrease in abdominal Tb", "setting": "Trpm8+/+ mice; 6 mg/kg i.p.", "result": "~ 0.8 °C"}, {"measurement": "Effect on abdominal Tb", "setting": "Trpm8−/− mice; 6 mg/kg i.p.", "result": "not affected"}, {"measurement": "Number of cold-responsive neurons", "setting": "[2]; M8-B 10 μM, cold (15°C), 19 ± 3% without treatment", "result": "4 ± 1", "unit": "%"}, {"measurement": "Number of neurons responsive to menthol", "setting": "[2]; menthol 250 μM", "result": "significantly decreased"}, {"measurement": "VO2 within the first hour after infusion", "setting": "Wistar rats [3]; from 19 ml/kg/min", "result": "~15", "unit": "mL/min/kg"}, {"measurement": "Colonic Tb within the first hour after infusion", "setting": "Wistar rats [3]; from ~37.3°C", "result": "~ 36.5 °C"}, {"measurement": "Heat loss index (HLI) when Tb was 37.5°C", "setting": "Wistar rats [4]; 1 mg/kg i.v. at 32°C then 21°C, controls HLI ~0", "result": "~ 0.4"}, {"measurement": "Inter-treatment Tb difference (M8-B vs vehicle)", "setting": "Wistar rats [4]; 1 mg/kg i.v. at Ta 32°C, then transferred to 11°C", "result": "exceeded 1 °C"}, {"measurement": "Inter-treatment Tb difference (M8-B vs vehicle)", "setting": "Wistar rats [4]; 1 mg/kg i.v. at Ta 32°C, then transferred to 14°C", "result": "exceeded 1 °C"}, {"measurement": "Delay of the development of tail skin vasoconstriction", "setting": "Wistar rats [4]; 1 mg/kg i.v. at Ta 32°C, then transferred to 21°C", "result": "~ 5 min"}, {"measurement": "Effect on Tb", "setting": "Wistar rats [4]; 1 mg/kg i.v. over 40 min at Ta 32°C, then transferred to 21°C", "result": "significant decrease in Tb"}, {"measurement": "Changes in Tb compared to vehicle", "setting": "Wistar rats [4]; 1 mg/kg i.v., constant Ta 15°C", "result": "no significant changes"}, {"measurement": "Effect on Tb", "setting": "Wistar rats [4]; 1 mg/kg i.v., constant Ta 19°C, data not shown", "result": "did not affect Tb"}, {"measurement": "Changes in Tb compared to vehicle", "setting": "Wistar rats [4]; 1 mg/kg i.v., constant Ta 32°C", "result": "no significant changes"}, {"measurement": "Tail Tsk at which M8-B caused a decrease in Tb (threshold, two-line model)", "setting": "Wistar rats [4]; 1 mg/kg i.v., experiments of Fig. 6B–H", "result": "≤ 23.2", "unit": "°C"}, {"measurement": "Effect on Tb", "setting": "Wistar rats [4]; 2.5 mg/kg intracerebroventricularly, Ta 19°C", "result": "no effect"}, {"measurement": "Effect on Tb", "setting": "Wistar rats [4]; 2.5 mg/kg intrathecally, Ta 19°C", "result": "no effect"}, {"measurement": "Decrease in colonic Tb compared to vehicle", "setting": "Wistar rats [4]; 6 mg/kg i.v. over 20 min, Ta 19°C", "result": "~ 0.9 °C"}, {"measurement": "Effect on Tb", "setting": "Wistar rats [4]; 6 mg/kg intrathecally, Ta 19°C", "result": "effective in decreasing Tb"}, {"measurement": "Threshold intravenous dose for a significant decrease in deep Tb", "setting": "Wistar rats [4]; i.v., Ta 19°C", "result": 2.5, "unit": "mg/kg"}, {"measurement": "Effect on hyperthermic response to menthol", "setting": "Wistar rats [5]; rats, M8-B 1 mg/kg i.v. pretreatment, p = 0.0009", "result": "significantly attenuated"}, {"measurement": "Effect on warmth-seeking response to menthol", "setting": "Wistar rats [5]; rats, M8-B 1 mg/kg i.v. pretreatment, p = 0.096", "result": "tended to attenuate"}, {"measurement": "IC50", "setting": "rat TRPM8; IC50, inhibition of rat TRPM8 activation by cold, cold (10°C)", "result": "0.0078 ± 0.0011", "unit": "µM"}, {"measurement": "IC50", "setting": "rat TRPM8; IC50, inhibition of rat TRPM8 activation by icilin, icilin (1 μM)", "result": "0.0269 ± 0.0121", "unit": "µM"}, {"measurement": "BAT thermogenic response to cold", "setting": "Wistar rats [6]; then 11°C, p = 0.105", "result": "tended to be less pronounced"}, {"measurement": "Nadir of Tb", "setting": "Wistar rats [6]; then transferred to 11°C, at 150 min", "result": "~ 36.2 °C"}, {"measurement": "Decrease in number of cold-induced c-Fos-positive neurons, LPBE", "setting": "[7]; p = 0.027", "result": 48, "unit": "%"}, {"measurement": "Decrease in number of cold-induced c-Fos-positive neurons, LPBC", "setting": "[7]; p = 0.178", "result": 41, "unit": "%"}]}, {"compound": "C=C(C)[C@]12C[C@@H](C)[C@@]34O[C@](Cc5ccccc5)(O[C@@H]1[C@@H]3C=C(COC(=O)Cc1ccc(O)c(OC)c1)C[C@]1(O)C(=O)C(C)=C[C@@H]41)O2", "note": "[RTX, resiniferatoxin, reference compound]", "values": [{"measurement": "Effect on abdominal Tb", "setting": "Trpm8+/+ mice; 150 ng/kg i.p.", "result": "readily produces hypothermia"}, {"measurement": "Decrease in Tb", "setting": "Trpm8−/− mice; 150 ng/kg i.p.", "result": "~ 2.5 °C"}]}, {"compound": "CC1CCC(C(C)C)C(O)C1", "note": "(stereo not drawn) [menthol, reference compound]", "values": [{"measurement": "Rise in Tb after menthol", "setting": "Wistar rats [5]; rats pre-infused with vehicle, 10 g of 0.5% menthol ointment epidermally", "result": "~ 1 °C"}]}, {"compound": "Cl.Cl.Cl.Cl.Cl.Cl.N.N.N.N.N.N.N.N.N.N.N.N.N.N.[O-2].[O-2].[Ru+3].[Ru+3].[Ru+4]", "note": "[ruthenium red]", "values": [{"measurement": "IC50", "setting": "TRPV4", "result": 0.024, "unit": "µM"}, {"measurement": "IC50", "setting": "TRPA1", "result": 0.367, "unit": "µM"}]}]}
